Consider 90 compounds from a melting point compilation (Tetko et al.; mined from patent text by program, amines drawn as free bases though some values may be those of a salt).

Take `CC(=O)N1N=C(c2ccc([N+](=O)[O-])c(C)c2)c2cc3c(cc2CC1(C)C#N)OCO3` (stereo not given): the melting point was in the range of 253 to 255 °C. For the compound `CCC1(CC)NC(=O)N(c2ccc(Cl)c(C(F)(F)F)c2)C1=O`, the melting point was 86 to 87 °C. As to `O=C(c1cccc(C(F)(F)F)c1)N(CCCCn1ccnc1)C1=Nc2cccc3cccc1c23`, the melting point was in the range of 165 to 167 °C. The result for `Cc1nc2sc3ccccc3n2c1C(C)O` (stereo not given) reads 173 to 174 °C. In the case of `CCn1c(C)nc2cc(C(F)(F)F)c(Cl)c(N)c21`, the melting point lay in the range of 176 to 178 °C. The result for `CCOC(=O)C=N[C@@H]1c2cc(C#N)ccc2OC(C)(C)[C@H]1O` (relative stereo) reads 98 to 100 °C; that for `Cc1ccc([N+](=O)[O-])cc1Nc1ncc(-c2cccnc2)o1`, 252 °C; that for `C=C(C)OC1OC(n2cc(C)c(=O)n(CC(=O)c3ccccc3)c2=O)CC1OC(=O)c1ccccc1` (stereo not given), 112 to 113 °C. In turn, `CCc1nc2c(N)nc3ccccc3c2n1CC(C)(C)C(N)=O` yielded a melting point of 279 to 281 °C. The result for `OC1CSC(Oc2cncc(C(F)(F)F)c2)C(O)C1O` (stereo not given) reads 160 to 161 °C; that for `Cc1c(CC(=O)O)c2ccccc2n1-c1ncnc2ccccc12`, 234 to 236 °C; that for `C=C1C(=O)c2ccccc2OC1c1ccc(N(C)C)cc1` (stereo not given), 110 to 112 °C. The result for `CON1C(=O)CC2(CCN(C(=O)C3=CN(C)C=CC3)CC2)C1=O` reads 46 to 62 °C; that for `CCOC(=O)c1cc(Br)cc2c(=O)cc(-c3cccc(OCc4nc5ccccc5s4)c3)oc12`, 250 to 251 °C; that for `CC(=O)n1cc(C#N)c(-c2ccc(F)c(Cl)c2F)c1`, 182 to 183 °C. The result for `O=C1C=C(O)CC(c2ccc3c(c2)CCC3)C1` (stereo not given) reads 198 °C; that for `CC(C)(C)NCC(O)COc1ccccc1-c1ccc(Cl)nn1` (stereo not given), 93 to 94 °C.

With `CC(=O)N[C@@H](Cc1ccc(-c2c3ccccc3cc3ccccc23)cc1)C(=O)O`, the melting point came out at 76 °C. The result for `C1COC2(OC1)OCCCO2` reads 137 to 140 °C; that for `C[C@H]1C[C@H](O)CN1c1ccc(C#N)c2ccccc12`, 149 to 151 °C.

In the case of `NC(=O)Cc1ccc([N+](=O)[O-])c(C(=O)c2ccc(Cl)cc2)c1`, the melting point was 212 °C. `CCCCCCCCCCCCCC(=O)Oc1ccc([N+](=O)[O-])cc1OC(=O)CCCCCCCCCCCCC` showed a melting point of 58 to 60 °C. The result for `Cc1cc(CNC(=O)CCl)c(O)c2c1CCC2=O` reads 166 to 168 °C; that for `C=CCOC(=O)c1ncn2c1[C@@H]1CCCN1C(=O)c1c(Cl)cccc1-2`, 122 to 123 °C; that for `COc1ccc2cc([C@H](C)C(=O)OCC(=O)OC(C)(C)C)ccc2c1`, 85 to 86 °C. On to `CC(C)(C)OC(=O)[C@@H]1CCCN1C(=O)CNS(=O)(=O)c1cccc2cccnc12`, for which the melting point was 150 to 153 °C. The compound `CCN1N=C(c2ccc3c(c2)CCC(=O)N3C)C(C)CC1=O` (stereo not given) yielded a melting point of 170 to 172 °C. Compound `Cc1ccn2c(-c3ccnc(-c4ccc(OCCN5CCCC5)cc4)c3)c(-c3cccc(C)n3)nc2c1` gave a melting point of 163 °C. The result for `CCOC(=O)C(=O)Nc1c(Cl)cc(Cl)c(Cl)c1O` reads 178 °C. The result for `N#Cc1ccc(-c2ccc(OCCCCCCC(=O)NO)cc2)cc1` reads 79 to 82 °C; that for `CCc1nn2ccc3oc(C)cc3c2c1CCNC(C)=O`, 128 to 129 °C. The result for `COc1cc(C(=O)C=Cc2ccncc2)ccc1OCC(=O)Nc1nc2ccccc2s1` reads 206 to 207 °C; that for `CCc1nc2c(N)nc3ccccc3c2n1CCCC#Cc1ccccn1`, 188 to 192 °C; that for `CN1C(O)=C(C(=O)Nc2ccccc2Cl)c2ccsc2S1(=O)=O`, 168 to 170 °C.

The compound `O=C(O)c1cc(NCc2c(F)c(F)c(C(F)(F)F)c(F)c2F)ccc1O` came in with a melting point of 179 °C. Take `Cc1cc(CNC(=O)c2ccnc(-n3cnn(Cc4ccc(F)c(F)c4)c3=O)c2)no1`: the melting point fell in the range of 160 to 161 °C.

Regarding `CCOC(=O)c1cnn2ccc3c(c12)CCO3`, the melting point lay within 138 to 139 °C. The result for `Clc1ccc(CNc2nc(NC3CCCc4ccccc43)c3ccccc3n2)cc1` (stereo not given) reads 166 to 167 °C. The result for `Cc1cc(-c2c(F)cc3c(=O)c(C(=O)O)cn4c3c2OC[C@@H]4C)cc(C)n1` reads 305 to 308 °C. The result for `c1ccc(-c2ccc3sc(-c4nc(COc5ccc(CCCn6ccnc6)cc5)co4)cc3c2)cc1` reads 168 to 169 °C; that for `O=c1[nH]c2cscc2c(=O)n1CCCCN1CCN(c2cccc(C(F)(F)F)c2)CC1`, 126 to 128 °C; that for `CC(C)c1cc2c(cc1Oc1cnc(N)nc1N)OCCN2C`, 167 to 170 °C. As for `CN1CCC2(CC1)NC(=S)N(c1ccc(C#N)c(C(F)(F)F)c1)C2=O`, the melting point lay in the range of 229 to 230 °C. `CC(C)n1c(CCC2C[C@@H](O)CC(=O)O2)c(-c2ccc(F)cc2)c(-c2ccccc2)c1C(=O)Nc1ccccc1` (stereo not given in full) returned a melting point of 128 to 129 °C. For `Ic1c[nH]c2nccc(OC3CCCCC3)c12`, the melting point lay within 199 to 201 °C. The result for `O=C1c2ccccc2C(=O)N1OCc1ccco1` reads 145 °C. The result for `O=C(O)C(OCc1ccc(-c2ccc(Cl)cc2)cc1)c1ccc(Cl)cc1` (stereo not given) reads 120 to 122 °C; that for `CCCCCCCCCCCCC(Oc1ccc(O)c(C(C)(C)C)c1)C(=O)OCC` (stereo not given), 45 to 48 °C; that for `CCOC(=O)CCNc1nc2c(C)cc(C)cc2n1Cc1nc(C)ccc1O`, 180 °C. The result for `C=CCOc1ccc(C[C@@H](NC(C)=O)C(=O)O)cc1` reads 75 °C; that for `CN1C(c2ccc(F)cc2)=NC(C(F)(F)F)(C(F)(F)F)C1CC(=O)c1ccc(F)cc1` (stereo not given), 145 to 147 °C; that for `CCOCc1nc2c(N)nc3c(c2n1NCCCNC(=O)NC(C)C)CCCC3`, 185 to 187 °C.

`C=CCOc1ccccc1OCCNCC(O)COc1cccc2c1CC(=O)N2` (stereo not given) came in with a melting point of 148 to 149 °C.

`CCOC(=O)CNC(=O)Nc1ccc(OC)cc1F` yielded a melting point of 158 to 159 °C. In the case of `COC(=O)c1c2cccccc-2c(-c2ccccc2)c1-c1ccc(S(C)(=O)=O)cc1`, the melting point is 98 to 100 °C. With `OC1CCc2c(F)cc(F)cc2C1` (stereo not given), the melting point stood at 85 °C.

`Cc1nn(C)c(C(N)=O)c1Cl` gave a melting point of 101 °C. For `CCOC(=O)COc1cccc(C(=O)Nc2ccccc2Sc2ccc(-c3nnn[nH]3)cc2)c1`, the melting point was 88 to 90 °C. Regarding `CCCNCCOc1ccc(NC(=O)c2n[nH]c3c2C(=O)CCC3)cn1`, the melting point is 120 °C. On to `CC(C)CN1C(=O)CN=C(N2CCN(C)CC2)c2ccccc21`, for which the melting point lay within 134 to 136 °C. The result for `CSC1=NS(=O)(=O)CCCS1` reads 91 °C. Turning to `CC(O)c1cc([N+](=O)[O-])ccc1F` (stereo not given), the melting point is less than 50 °C. The result for `CN1CCCC1=NC(=O)Nc1cc(Cl)cc(Cl)c1` reads 157 to 159 °C; that for `Cc1c(C(=O)NC2CCCCC2)nc(-c2ccccc2Cl)n1-c1ccc([N+](=O)[O-])cc1`, 217 to 220 °C. The result for `CSc1c(O[C@@H]2CCC[C@H](N)C2)ccc2[nH]ncc12` (relative stereo) reads 112 to 113 °C; that for `Cc1nc(CN(C)C(=O)N[C@H](C(=O)N[C@@H](Cc2ccccc2)C[C@H](O)[C@H](Cc2ccccc2)NC(=O)OCc2cccnc2)C(C)C)cs1`, 69 to 72 °C. As for `O=CN(O)C(CCO)CS(=O)(=O)c1ccc(-c2ccc(Cl)cc2)cc1` (stereo not given), the melting point fell in the range of 158 to 159 °C. The result for `COc1ccc(N2c3ccccc3S(=O)(=O)c3ccccc32)cc1` reads 265 to 266 °C; that for `CC12CCC3C(CCC4=CC(=O)CCC43C=O)C1CCC2=O` (stereo not given), 126 to 129 °C; that for `COc1ccc(Cc2cc3c(cc2OC)OCO3)cc1`, 56 to 57 °C. The result for `Cc1oc(-c2ccccc2)nc1COc1ccc(CON=C(CC(=O)O)c2ccccc2)cc1` reads 107 to 108 °C. The result for `CS(=O)(=O)N1C(=O)C2(COc3cc4c(cc32)OCO4)c2ccccc21` (stereo not given) reads 215 to 217 °C; that for `Cc1ccc(S(=O)(=O)Sc2cc(C)c(CO)cc2C(C)(C)C)cc1`, 121 to 122 °C. In turn, `CSC(Nc1cc(C(F)(F)F)cc(C(F)(F)F)c1)=C(C#N)S(=O)(=O)c1ccc(Cl)cc1` yielded a melting point of 150 to 152 °C.

The compound `Cc1[nH]c(C(=O)N2CCC(C(=O)NCC3CCCCC3)CC2)c(C)c1-c1nc2ccc(C(=O)c3ccccc3)cc2[nH]1` had a melting point of 274 to 276 °C.

Compound `N#Cc1ccc(-c2cc3c(Cl)ncnc3[nH]2)cc1` registered a melting point of 296 to 297 °C.

The compound `CCCCCCCCCCCCCCC(=O)C(=O)NCCCC(=O)OCC` displayed a melting point of 63 to 64 °C. The result for `CSc1c(Cl)ccc(C(=O)O)c1SC` reads 130 to 131 °C. The compound `CN1C(=S)N(c2ccc(C#N)c(C(F)(F)F)c2)C(=S)C1(C)C` registered a melting point of 211 to 212 °C. The result for `Nc1nc(-c2ccco2)c(C(=O)c2ccccn2)s1` reads 206 to 207 °C. The result for `CN(CCF)C(=O)c1cc2ccccc2c(-c2ccccc2I)n1` reads 142 to 143 °C; that for `O=C(O)c1csc(C(F)F)c1`, 131 to 132 °C. The compound `CCOc1ccc([N+](=O)[O-])c(NN2CCOCC2)c1` gave a melting point of 152 °C. The result for `O=C1CCc2ccc(OCCCN3CCCN(c4cccc(Cl)c4Cl)CC3)cc2N1` reads 130 to 131 °C; that for `O=C(C=Cc1ccc(Cl)cc1)C=Cc1ccc(Cl)cc1`, 187 to 189 °C; that for `COc1cc(C)ccc1-c1cc2ccccc2[nH]1`, 125 °C. The result for `S=C=Nc1ccc(-c2nc(-c3ccccn3)no2)cc1` reads 145 to 146 °C; that for `CCOc1nsc(NC(=O)NC)c1C(N)=O`, 240 to 241 °C. `CCCC=Cc1c(C(C)C)nc(C(C)C)c(CO)c1-c1cccc(C)c1` returned a melting point of 94 to 97 °C.

In turn, `CC(=O)N1CCN=C1Nc1cc(C)nn1C(C)C` returned a melting point of 145 to 147 °C.

A word on the melting point: it is the temperature, or range, at which the solid turns liquid.
